# In patent US20260250290A1 (BRISTOL-MYERS SQUIBB COMPANY, priority 2023, published 2026):
# Target: T1, full length SGK1 (Homo sapiens, UniProt O00141)
# T1 construct: 125 μM full length SGK1 (Life Technologies Part #PR7358A); purchased Life Technologies PR7358A
# T1 sequence (O00141 1-431): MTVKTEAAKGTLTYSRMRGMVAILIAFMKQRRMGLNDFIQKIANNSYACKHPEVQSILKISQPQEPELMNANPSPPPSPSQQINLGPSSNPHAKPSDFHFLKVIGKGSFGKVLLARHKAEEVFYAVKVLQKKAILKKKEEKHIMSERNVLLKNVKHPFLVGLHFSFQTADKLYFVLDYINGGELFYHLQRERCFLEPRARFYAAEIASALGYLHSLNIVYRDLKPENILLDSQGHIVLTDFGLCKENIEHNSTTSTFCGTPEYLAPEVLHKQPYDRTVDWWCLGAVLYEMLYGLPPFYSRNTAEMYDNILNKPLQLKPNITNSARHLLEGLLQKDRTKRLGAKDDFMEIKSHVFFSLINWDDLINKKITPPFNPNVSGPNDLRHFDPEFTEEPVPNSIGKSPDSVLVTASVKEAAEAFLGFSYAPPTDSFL
# Test: SGK1 inhibition Assay A (Caliper LabChip electrophoretic separation of fluorescent peptide substrate and phosphorylated product)
# Format: biochemical
# Details: Assay A; 20 μM ATP, 40 min incubation; read-out: SGK1 IC50
row,Compound,IC50 [µM]
1,"CC(=O)N1CC=C(c2cc(N3CCC[C@@H](NC(=O)c4cccc(F)n4)C3)c3c(N)ncnn23)C1 [Example 726, :(R)-N-(1-(7-(1-acetyl-2,5-dihydro-1H-pyrrol-3-yl)-4-aminopyrrolo[2,1-f][1,2,4]triazin-5-yl)piperidin-3-yl)-6-fluoropicolinamide]",0.061
2,"CC(=O)N1CC=C(c2cc(N3CCC[C@@H](NC(=O)c4cccc(CN5CCN(C)CC5)n4)C3)c3c(N)ncnn23)C1 [Example 727, (R)-N-(1-(7-(1-acetyl-2,5-dihydro-1H-pyrrol-3-yl)-4-aminopyrrolo[2,1-f][1,2,4]triazin-5-yl)piperidin-3-yl)-6-((4-methylpiperazin-1-yl)methyl)picolinamide]",0.161
3,"CC(=O)N1CC=C(c2cc(N3CCC[C@@H](NC(=O)c4ccccn4)C3)c3c(N)ncnn23)C1 [Example 728, (R)-N-(1-(7-(1-acetyl-2,5-dihydro-1H-pyrrol-3-yl)-4-aminopyrrolo[2,1-f][1,2,4]triazin-5-yl)piperidin-3-yl)picolinamide]",0.081
4,"CC(=O)N1CC=C(c2cc(N3CCC[C@@H](NC(=O)c4cccnc4)C3)c3c(N)ncnn23)C1 [Example 729, (R)-N-(1-(7-(1-acetyl-2,5-dihydro-1H-pyrrol-3-yl)-4-aminopyrrolo[2,1-f][1,2,4]triazin-5~ yl)piperidin-3-yl)nicotinamide]",0.111
5,"CC(=O)N1CC=C(c2cc(N3CCC[C@@H](NC(=O)c4ccncc4)C3)c3c(N)ncnn23)C1 [Example 730, (R)-N-(1-(7-(1-acetyl-2,5-dihydro-1H-pyrrol-3-yl)-4-aminopyrrolo[2,1-f][1,2,4]triazin-5-yl)piperidin-3-yl)isonicotinamide]",0.026
6,"CC(=O)N1CC=C(c2cc(N3CCC[C@@H](NC(=O)c4ccc(Cl)s4)C3)c3c(N)ncnn23)C1 [Example 731, (R)-N-(1-(7-(1-acctyl-2,5-dihydro-1H-pyrrol-3-yl)-4-aminopyrrolo[2,1-f][1,2,4]triazin-5-yl)piperidin-3-yl)-5-chlorothiophene-2-carboxamide]",0.006
7,"CC(=O)N1CC=C(c2cc(N3CCC[C@@H](NC(=O)c4cc(C)cc(N5CCN(C)CC5)n4)C3)c3c(N)ncnn23)C1 [Example 732, (R)-N-(1-(7-(1-acetyl-2,5-dihydro-1H-pyrrol-3-yl)-4-aminopyrrolo[2,1-f][1,2,4]triazin-5-yl)piperidin-3-yl)-4-methyl-6-(4-methylpiperazin-1-yl)picolinamide]",0.025
8,"CC(=O)N1CC=C(c2cc(N3CCC[C@@H](NC(=O)c4cccc(OCC5CN(C)C5)n4)C3)c3c(N)ncnn23)C1 [Example 733, (R)-N-(1-(7-(1-acetyl-2,5-dihydro-1H-pyrrol-3-yl)-4-aminopyrrolo[2,1-f][1,2,4]triazin-5-yl)piperidin-3-yl)-6-((1-methylazetidin-3-yl)methoxy)picolinamide]",0.023
9,"CC(=O)N1CC=C(c2cc(N3CCC[C@@H](NC(=O)c4cccc(OC5CN6CCC5CC6)n4)C3)c3c(N)ncnn23)C1 (stereo partly drawn) [Example 734, N-((R)-1-(7-(1-acetyl-2,5-dihydro-1H-pyrrol-3-yl)-4-aminopyrrolo[2,1-f][1,2,4]triazin-5-yl)piperidin-3-yl)-6-(quinuclidin-3-yloxy)picolinamide]",0.01
10,"CC(=O)N1CC=C(c2cc(N3CCC[C@@H](NC(=O)c4cccc(N5CCN(C)CC5)c4)C3)c3c(N)ncnn23)C1 [Example 735, (R)-N-(1-(7-(1-acetyl-2,5-dihydro-1H-pyrrol-3-yl)-4-aminopyrrolo[2,1-f][1,2,4]triazin-5-yl)piperidin-3-yl)-3-(4-methylpiperazin-1-yl)benzamide]",0.021
11,CC(=O)N1CC=C(c2cc(N3CCC[C@@H](NC(=O)c4cncc(N5CCN(C)CC5)n4)C3)c3c(N)ncnn23)C1 [Example 736],0.048
12,CC(=O)N1CC=C(c2cc(N3CCC[C@@H](NC(=O)c4ccn(C(F)F)n4)C3)c3c(N)ncnn23)C1 [Example 737],0.01
